This note sets out measurements from the supplement of paper PMC10307832.

Assay in all cases: relative viability (nuclei count vs DMSO), 5 days (fraction); higher = more cells survive
Compound in assay [1]: COc1cc(Nc2ncc3c(n2)-c2ccc(Cl)cc2C(c2c(F)cccc2OC)=NC3)ccc1C(=O)O [Alisertib] + C[C@@H](Oc1cc(-c2cnn(C3CCNCC3)c2)cnc1N)c1c(Cl)ccc(F)c1Cl [Crizotinib] (partner 1 µM)
The essentials: (§1)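 Relative viability equals treated-well nuclei counts divided by vehicle-well nuclei counts. Counts came from 4× images of lung cancer cell lines grown in 1536-well plates for 5 days after pin-tool dosing on the day after seeding. Dosing used one drug alone or a fixed anchor-drug dose plus five library-drug doses (not always all listed) in √10 steps, and values are medians of duplicate plates.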

Compound in assay [2]: COc1cc(Nc2ncc3c(n2)-c2ccc(Cl)cc2C(c2c(F)cccc2OC)=NC3)ccc1C(=O)O [Alisertib] + Cc1cc(Nc2cc(N3CCN(C)CC3)nc(Sc3ccc(NC(=O)C4CC4)cc3)n2)n[nH]1 [Tozasertib] (partner 0.1 µM)
Summed up: as §1

Compound in assay [3]: COc1cc(Nc2ncc3c(n2)-c2ccc(Cl)cc2C(c2c(F)cccc2OC)=NC3)ccc1C(=O)O [Alisertib] + COc1cccc2cc(-c3nc([C@H]4CC[C@H](C(=O)O)CC4)n4ncnc(N)c34)[nH]c12 [OSI-027] (partner 0.5 µM)
Summed up:
as §1

Compound in assay [4]: COc1cc(Nc2ncc3c(n2)-c2ccc(Cl)cc2C(c2c(F)cccc2OC)=NC3)ccc1C(=O)O [Alisertib] + C[C@]1(O)C[C@@H](c2nc(-c3ccc4ccc(-c5ccccc5)nc4c3)c3c(N)nccn32)C1 [Linsitinib] (partner 1 µM)
Summed up: as §1

Turning to ChaGo-K-1, the relative viability in assay [1] (first compound 0.005 µM) was determined as 1.08; in assay [1] (first compound 0.01581 µM), 0.849; in assay [1] (first compound 0.05 µM) it was 0.366; in assay [1] (first compound 0.1581 µM), 0.344; in assay [1] (first compound 0.5 µM), 0.317; in assay [2] (first compound 0.005 µM), 0.228. Further, the relative viability in assay [2] (first compound 0.01581 µM) worked out at 0.213; in assay [2] (first compound 0.05 µM) it was 0.194; in assay [2] (first compound 0.1581 µM) it was 0.207; in assay [2] (first compound 0.5 µM), 0.198; in assay [3] (first compound 0.005 µM) it was 0.423; in assay [3] (first compound 0.01581 µM), 0.537. Moreover, the figures for the relative viability in assay [3] (first compound 0.05 µM), in assay [3] (first compound 0.1581 µM) and in assay [3] (first compound 0.5 µM) were 0.349, 0.138 and 0.15, respectively.

With NCI-H1755, the relative viability was 1 in assay [4] (first compound 0.005 µM); 0.947 in assay [4] (first compound 0.01581 µM); 0.62 in assay [4] (first compound 0.05 µM); 0.5 in assay [4] (first compound 0.1581 µM); 0.271 in assay [4] (first compound 0.5 µM); 0.853 in assay [1] (first compound 0.005 µM). Also, the relative viability in assay [1] (first compound 0.01581 µM) was 0.73; in assay [1] (first compound 0.05 µM), 0.415; in assay [1] (first compound 0.1581 µM), 0.366; in assay [1] (first compound 0.5 µM), 0.294; in assay [2] (first compound 0.005 µM) it was 0.6; in assay [2] (first compound 0.01581 µM) it was 0.569. The relative viability in assay [2] (first compound 0.05 µM) is 0.422; in assay [2] (first compound 0.1581 µM), 0.386; in assay [2] (first compound 0.5 µM), 0.311; in assay [3] (first compound 0.005 µM), 0.638; in assay [3] (first compound 0.01581 µM), 0.645; in assay [3] (first compound 0.05 µM), 0.541. The relative viability in assay [3] (first compound 0.1581 µM) amounted to 0.341; in assay [3] (first compound 0.5 µM), 0.27.

On to NCI-H2228, for which the relative viability was 0.55 in assay [4] (first compound 0.005 µM); 0.936 in assay [4] (first compound 0.01581 µM); 0.317 in assay [4] (first compound 0.05 µM); 0.12 in assay [4] (first compound 0.1581 µM); 0.095 in assay [4] (first compound 0.5 µM); 0.686 in assay [1] (first compound 0.005 µM). Besides, the relative viability in assay [1] (first compound 0.01581 µM) was determined as 0.406; in assay [1] (first compound 0.05 µM) it was 0.301; in assay [1] (first compound 0.1581 µM), 0.168; in assay [1] (first compound 0.5 µM), 0.188; in assay [2] (first compound 0.005 µM), 0.322; in assay [2] (first compound 0.01581 µM) it was 0.19. In addition, the relative viability in assay [2] (first compound 0.05 µM) amounted to 0.147; in assay [2] (first compound 0.1581 µM), 0.132; in assay [2] (first compound 0.5 µM), 0.109; in assay [3] (first compound 0.005 µM), 0.589; in assay [3] (first compound 0.01581 µM), 0.466; in assay [3] (first compound 0.05 µM), 0.27. Further, the results for the relative viability in assay [3] (first compound 0.1581 µM) and in assay [3] (first compound 0.5 µM) were 0.0993 and 0.115, respectively.

Regarding NCI-H2087, the relative viability in assay [4] (first compound 0.005 µM) is 0.866; in assay [4] (first compound 0.01581 µM), 0.669; in assay [4] (first compound 0.05 µM), 0.276; in assay [4] (first compound 0.1581 µM), 0.236; in assay [4] (first compound 0.5 µM), 0.228; in assay [1] (first compound 0.005 µM), 0.893. Moreover, the relative viability turned out to be 0.609 in assay [1] (first compound 0.01581 µM); 0.176 in assay [1] (first compound 0.05 µM); 0.225 in assay [1] (first compound 0.1581 µM); 0.209 in assay [1] (first compound 0.5 µM); 0.204 in assay [2] (first compound 0.005 µM); 0.249 in assay [2] (first compound 0.01581 µM). Besides, the relative viability came to 0.126 in assay [2] (first compound 0.05 µM); 0.158 in assay [2] (first compound 0.1581 µM); 0.144 in assay [2] (first compound 0.5 µM); 0.542 in assay [3] (first compound 0.005 µM); 0.521 in assay [3] (first compound 0.01581 µM); 0.204 in assay [3] (first compound 0.05 µM). Also, the figures for the relative viability in assay [3] (first compound 0.1581 µM) and in assay [3] (first compound 0.5 µM) were 0.111 and 0.098, respectively.

Consider LU99A, for which the relative viability in assay [4] (first compound 0.005 µM) was 0.532; in assay [4] (first compound 0.01581 µM), 0.511; in assay [4] (first compound 0.05 µM) it was 0.193; in assay [4] (first compound 0.1581 µM), 0.177; in assay [4] (first compound 0.5 µM) it was 0.168; in assay [1] (first compound 0.005 µM) it was 0.513. The relative viability in assay [1] (first compound 0.01581 µM) stood at 0.451; in assay [1] (first compound 0.05 µM), 0.245; in assay [1] (first compound 0.1581 µM) it was 0.217; in assay [1] (first compound 0.5 µM), 0.182; in assay [2] (first compound 0.005 µM), 0.276; in assay [2] (first compound 0.01581 µM), 0.272. The relative viability in assay [2] (first compound 0.05 µM) was determined as 0.219; in assay [2] (first compound 0.1581 µM) it was 0.216; in assay [2] (first compound 0.5 µM), 0.203; in assay [3] (first compound 0.005 µM) it was 0.301; in assay [3] (first compound 0.01581 µM) it was 0.324; in assay [3] (first compound 0.05 µM), 0.259. Also, the relative viability in assay [3] (first compound 0.1581 µM) is 0.204; in assay [3] (first compound 0.5 µM) it was 0.164.

Consider NCI-H1355, for which the relative viability in assay [4] (first compound 0.005 µM) turned out to be 0.791; in assay [4] (first compound 0.01581 µM), 0.8; in assay [4] (first compound 0.05 µM), 0.394; in assay [4] (first compound 0.1581 µM), 0.22; in assay [4] (first compound 0.5 µM), 0.154; in assay [1] (first compound 0.005 µM), 1.08. For the same cell line, the relative viability in assay [1] (first compound 0.01581 µM) was 0.906; in assay [1] (first compound 0.05 µM), 0.737; in assay [1] (first compound 0.1581 µM), 0.215; in assay [1] (first compound 0.5 µM), 0.186; in assay [2] (first compound 0.005 µM), 0.53; in assay [2] (first compound 0.01581 µM), 0.462. Also, the relative viability in assay [2] (first compound 0.05 µM) worked out at 0.297; in assay [2] (first compound 0.1581 µM) it was 0.192; in assay [2] (first compound 0.5 µM) it was 0.217; in assay [3] (first compound 0.005 µM) it was 0.346; in assay [3] (first compound 0.01581 µM), 0.367; in assay [3] (first compound 0.05 µM), 0.356. Further, the relative viability was 0.154 in assay [3] (first compound 0.1581 µM) and 0.173 in assay [3] (first compound 0.5 µM).

NCI-H520: the relative viability amounted to 0.805 in assay [4] (first compound 0.005 µM); 0.667 in assay [4] (first compound 0.01581 µM); 0.423 in assay [4] (first compound 0.05 µM); 0.308 in assay [4] (first compound 0.1581 µM); 0.22 in assay [4] (first compound 0.5 µM); 0.589 in assay [1] (first compound 0.005 µM). Further, the relative viability came to 0.38 in assay [1] (first compound 0.01581 µM); 0.286 in assay [1] (first compound 0.05 µM); 0.296 in assay [1] (first compound 0.1581 µM); 0.243 in assay [1] (first compound 0.5 µM); 0.372 in assay [2] (first compound 0.005 µM); 0.418 in assay [2] (first compound 0.01581 µM). Besides, the relative viability in assay [2] (first compound 0.05 µM) was 0.376; in assay [2] (first compound 0.1581 µM), 0.409; in assay [2] (first compound 0.5 µM) it was 0.357; in assay [3] (first compound 0.005 µM) it was 0.253; in assay [3] (first compound 0.01581 µM) it was 0.221; in assay [3] (first compound 0.05 µM) it was 0.204. Further, the relative viability came to 0.18 in assay [3] (first compound 0.1581 µM) and 0.182 in assay [3] (first compound 0.5 µM).
